Data from US6972296B2, “Carboxylic acid derivatives that inhibit the binding of integrins to their receptors” (Encysive Pharmaceuticals Inc., priority 1999, dated 2005).
Values belong to the compound of their own block, whether it stands above or below them.

Target: T1, α4β1 integrin (Homo sapiens, UniProt P05556+P13612)
T1 construct: endogenous in cells; host or cells: Ramos cells
Assay: Adhesion of calcein-labeled Ramos cells to CS1 (fibronectin) peptide conjugated ovalbumin
Assay type: cell-based
Conditions: Ramos cell adhesion to CS1 conjugated ovalbumin
In short: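 Plates bearing CS1 fibronectin peptide coupled to ovalbumin (0.5 μg/ml coat, 3% BSA block) received calcein-labelled Ramos cells plus compound (100 μM stated) for 30 min at 37 °C. Buffer was TBS pH 7.5 with 1 mM Mg2+, Ca2+, Mn2+; bound cells quantified by fluorescence after lysis; […].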

[1] = Table 5, dose required to give 50% inhibition
[2] = Table 7, dose required to give 50% inhibition

T1 sequence (P13612 34-1032): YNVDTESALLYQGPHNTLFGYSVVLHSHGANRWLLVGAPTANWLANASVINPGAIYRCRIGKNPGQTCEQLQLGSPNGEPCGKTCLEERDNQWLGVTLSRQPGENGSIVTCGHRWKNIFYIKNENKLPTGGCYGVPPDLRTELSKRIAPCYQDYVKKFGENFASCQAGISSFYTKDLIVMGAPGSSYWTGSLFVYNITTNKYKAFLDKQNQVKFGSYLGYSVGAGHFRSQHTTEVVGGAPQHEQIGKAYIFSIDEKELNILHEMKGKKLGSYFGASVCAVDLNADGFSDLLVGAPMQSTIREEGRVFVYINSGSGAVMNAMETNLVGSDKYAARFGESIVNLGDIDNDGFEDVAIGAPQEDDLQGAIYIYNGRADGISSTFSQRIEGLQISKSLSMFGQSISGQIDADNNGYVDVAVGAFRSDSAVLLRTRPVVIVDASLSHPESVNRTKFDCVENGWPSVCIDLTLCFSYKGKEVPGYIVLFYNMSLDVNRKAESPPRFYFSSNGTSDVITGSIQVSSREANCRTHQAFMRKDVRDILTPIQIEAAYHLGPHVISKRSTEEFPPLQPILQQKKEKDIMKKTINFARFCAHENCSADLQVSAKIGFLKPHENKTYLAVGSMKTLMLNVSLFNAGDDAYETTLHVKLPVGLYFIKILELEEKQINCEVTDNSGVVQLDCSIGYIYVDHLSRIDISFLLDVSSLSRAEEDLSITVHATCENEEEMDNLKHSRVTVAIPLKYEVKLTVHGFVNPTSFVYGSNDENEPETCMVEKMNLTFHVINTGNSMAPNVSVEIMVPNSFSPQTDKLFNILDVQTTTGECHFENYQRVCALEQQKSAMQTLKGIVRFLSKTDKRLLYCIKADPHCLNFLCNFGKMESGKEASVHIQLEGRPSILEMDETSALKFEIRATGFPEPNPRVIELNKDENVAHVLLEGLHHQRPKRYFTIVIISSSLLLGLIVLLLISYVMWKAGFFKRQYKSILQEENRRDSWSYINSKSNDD
T1 sequence (P05556 21-798): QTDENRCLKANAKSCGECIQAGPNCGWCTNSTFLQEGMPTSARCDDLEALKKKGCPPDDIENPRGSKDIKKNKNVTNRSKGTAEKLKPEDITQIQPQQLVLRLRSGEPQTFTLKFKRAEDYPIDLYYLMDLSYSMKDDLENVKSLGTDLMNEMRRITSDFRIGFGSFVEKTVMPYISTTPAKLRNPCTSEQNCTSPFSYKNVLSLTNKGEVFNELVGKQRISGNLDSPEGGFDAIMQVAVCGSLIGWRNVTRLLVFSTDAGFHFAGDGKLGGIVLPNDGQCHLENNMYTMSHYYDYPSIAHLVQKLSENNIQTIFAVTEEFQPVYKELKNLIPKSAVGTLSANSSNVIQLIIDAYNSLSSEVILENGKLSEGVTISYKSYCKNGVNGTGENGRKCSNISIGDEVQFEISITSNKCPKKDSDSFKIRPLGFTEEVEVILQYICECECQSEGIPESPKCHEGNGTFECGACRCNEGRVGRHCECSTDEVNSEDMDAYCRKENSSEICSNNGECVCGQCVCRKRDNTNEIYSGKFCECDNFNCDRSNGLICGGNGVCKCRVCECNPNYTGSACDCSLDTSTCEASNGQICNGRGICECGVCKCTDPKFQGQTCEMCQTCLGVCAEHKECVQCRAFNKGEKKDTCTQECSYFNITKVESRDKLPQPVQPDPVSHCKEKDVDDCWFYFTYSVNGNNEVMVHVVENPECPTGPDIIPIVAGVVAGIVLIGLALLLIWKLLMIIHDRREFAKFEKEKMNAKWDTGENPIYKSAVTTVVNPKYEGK

SMILES: Cc1ccc([C@H](CC(=O)O)NC(=O)Nc2cccn(Cc3cccc(C(C)(C)C)c3O)c2=O)cc1
IC50 [1]: 4000 nM

SMILES: COc1ccc([C@H](CC(=O)O)NC(=O)Nc2c(O)c3c(n(Cc4c(C)cccc4Cl)c2=O)CCC3)cc1F
IC50 [2]: 3 nM

SMILES: Cc1ccc([C@H](CC(=O)O)NC(=O)Nc2c(O)c(C)cn(Cc3c(Cl)cccc3Cl)c2=O)cc1
IC50 (Table 6, 30 minutes at 37° C.): 20 nM

SMILES: Cc1cn(Cc2ccccc2Cl)c(=O)c(NC(=O)N[C@@H](CC(=O)O)c2ccc(C(C)C)cc2)c1O
IC50 [2]: 175 nM

SMILES: O=C(O)C[C@H](NC(=O)Nc1c(O)c2c(n(Cc3ccccc3Cl)c1=O)CCC2)c1cccc(OC(F)(F)C(F)F)c1
IC50 [2]: 4 nM

SMILES: Cc1cn(Cc2ccccc2Cl)c(=O)c(NC(=O)N[C@@H](CC(=O)O)c2ccc3c(c2)CCC3)c1O
IC50 [2]: 18 nM

SMILES: CCn1ccc2cc([C@H](CC(=O)O)NC(=O)Nc3c(O)c4c(n(Cc5ccccc5Cl)c3=O)CCC4)ccc21 [(3S)-3-{[({1-[(2-chlorophenyl)methyl]-4-hydroxy-2-oxo-2,5,6,7-tetrahydro-1H-cyclopenta[b]pyridin-3-yl}amino)carbonyl]amino}-3-(1-ethyl-1H-indol-5-yl)propanoic acid]
IC50 [2]: 5 nM

SMILES: O=C(O)C[C@H](NC(=O)N[C@H]1CCN(Cc2cccs2)C1=O)c1ccc2c(c1)OCO2 [(3S)-3-(1,3-benzodioxol-5-yl)-3-[({[(3S)-2-oxo-1-(2-thienylmethyl)tetrahydro-1H-pyrrol-3-yl]amino}carbonyl)amino]propanoic acid]
IC50 (Table 2, 30 minutes at 37° C.): 15000 nM

SMILES: Cc1ccc([C@H](CC(=O)O)NC(=O)Nc2c(O)c(C)cn([C@H](C)c3ccccc3)c2=O)cc1
IC50 [1]: 4000 nM

SMILES: CCOc1ncc([C@H](CC(=O)O)NC(=O)Nc2c(O)c(C)cn(Cc3ccccc3Cl)c2=O)c(OCC)n1
IC50 [2]: 13 nM

SMILES: O=C(O)C[C@H](NC(=O)Nc1cccn(Cc2ccccc2)c1=O)c1ccc2c(c1)OCO2
IC50 (Table 4, 30 minutes at 37° C.): 500 nM

SMILES: Cc1ccc([C@H](CC(=O)O)NC(=O)Nc2cccn(Cc3ccc(F)cc3)c2=O)cc1
IC50 [1]: 2000 nM

SMILES: CCOc1cccc(Cl)c1Cn1c(C)c(C)c(O)c(NC(=O)N[C@@H](CC(=O)O)c2cccc(OC(C)C)c2)c1=O [(3S)-3-[({[1-(2-chloro-6-ethoxybenzyl)-4-hydroxy-5,6-dimethyl-2-oxo-1,2-dihydropyridin-3-yl]amino}carbonyl)amino]-3-(3-isopropoxyphenyl)propanoic acid]
IC50 [2]: 3 nM

SMILES: Cc1ccc([C@H](CC(=O)O)NC(=O)Nc2cccn(Cc3csc(C)n3)c2=O)cc1
IC50 (Table 4, 30 minutes at 37° C.): 1000 nM

SMILES: COc1cccc(OC)c1Cn1ccc(O)c(NC(=O)N[C@@H](CC(=O)O)c2ccc(C)cc2)c1=O [(3S)-3-[({[1-(2,6-dimethoxybenzyl)-4-hydroxy-2-oxo-1,2-dihydropyridin-3-yl]amino}carbonyl)amino]-3-(4-methylphenyl)propanoic acid]
IC50 [1]: 10 nM

SMILES: CCCc1cn(Cc2c(Cl)cccc2OC)c(=O)c(NC(=O)N[C@@H](CC(=O)O)c2cccc(OCC)c2)c1O
IC50 (Table 6, 30 minutes at 37° C.): 7 nM

SMILES: Cc1ccc([C@H](CC(=O)O)NC(=O)Nc2cccn(Cc3ccc(Cl)s3)c2=O)cc1
IC50 (Table 4, 30 minutes at 37° C.): 1300 nM

SMILES: Cc1cc(C)cc(-c2cccc([C@H](CC(=O)O)NC(=O)Nc3c(O)c(C)cn(Cc4ccccc4Cl)c3=O)c2)c1
IC50 [2]: 50 nM

SMILES: CCOc1cccc([C@H](CC(=O)O)NC(=O)Nc2c(O)c(C)nn(Cc3c(Cl)cccc3OCC)c2=O)c1 [(3S)-3-[({[2-(2-chloro-6-ethoxybenzyl)-5-hydroxy-6-methyl-3-oxo-2,3-dihydropyridazin-4-yl]amino}carbonyl)amino]-3-(3-ethoxyphenyl)propanoic acid]
IC50 [2]: 3 nM

SMILES: Cc1ccc([C@H](CC(=O)O)NC(=O)Nc2c(O)ccn(Cc3cc(C)ccc3C)c2=O)cc1
IC50 [1]: 20 nM

SMILES: COc1cc(Cl)ccc1Cn1ccc(O)c(NC(=O)N[C@@H](CC(=O)O)c2ccc(C)cc2)c1=O
IC50 [1]: 25 nM

SMILES: Cc1ccc([C@H](CC(=O)O)NC(=O)Nc2c(-c3ccccn3)nc(C)n(Cc3ccccc3)c2=O)cc1
IC50 (Table 3, 30 minutes at 37° C.): 25 nM
IC50 (Table 4, 30 minutes at 37° C.): 25 nM

SMILES: CCCOc1cccc(Cl)c1Cn1cc(C)c(O)c(NC(=O)N[C@@H](CC(=O)O)c2cccc(OCC)c2)c1=O
IC50 [2]: 5 nM

SMILES: Cc1ccccc1[C@H](CC(=O)O)NC(=O)Nc1c(O)c(C)cn(Cc2ccccc2Cl)c1=O
IC50 [2]: 267 nM

SMILES: Cc1ccc([C@H](CC(=O)O)NC(=O)Nc2c(O)ccn(Cc3c(F)cccc3F)c2=O)cc1 [(3S)-3-[({[1-(2,6-difluorobenzyl)-4-hydroxy-2-oxo-1,2-dihydropyridin-3-yl]amino}carbonyl)amino]-3-(4-methylphenyl)propanoic acid]
IC50 [1]: 8 nM

SMILES: COc1cc([C@H](CC(=O)O)NC(=O)Nc2c(O)c(C)c(C)n(Cc3ccccc3Cl)c2=O)ccc1C
IC50 [1]: 15 nM

SMILES: CCOc1ncc([C@H](CC(=O)O)NC(=O)Nc2c(O)c3c(n(Cc4ccccc4Cl)c2=O)CCC3)c(OCC)n1
IC50 [2]: 15 nM

SMILES: Cc1ccc([C@H](CC(=O)O)NC(=O)Nc2c(O)c3c(n(Cc4ccccc4Cl)c2=O)CCCC3)cc1
IC50 [1]: 20 nM

Next, values leading:

IC50 (Table 4, 30 minutes at 37° C.): 1000 nM
SMILES: O=C(O)CC(NC(=O)Nc1cccn(Cc2ccccc2Cl)c1=O)c1ccc(Cl)c(Cl)c1 (stereo not drawn)

IC50 (Table 4, 30 minutes at 37° C.): 200 nM
SMILES: O=C(O)C[C@H](NC(=O)Nc1cccn(Cc2ccccc2Cl)c1=O)c1ccc(F)c(C(F)(F)F)c1

IC50 (Table 6, 30 minutes at 37° C.): 30 nM
SMILES: O=C(O)CC(NC(=O)Nc1c(O)ccn(Cc2ccccc2Cl)c1=O)c1cccs1 (stereo not drawn)

IC50 (Table 6, 30 minutes at 37° C.): 3 nM
SMILES: COc1cccc([C@H](CC(=O)O)NC(=O)Nc2c(O)c(C)cn(Cc3ccccc3Cl)c2=O)c1

IC50 (Table 6, 30 minutes at 37° C.): 2500 nM
SMILES: O=C(O)C[C@@H](Cc1cccc2ccccc12)NC(=O)Nc1c(O)ccn(Cc2ccccc2Cl)c1=O

IC50 (Table 3, 30 minutes at 37° C.): 30 nM
IC50 (Table 4, 30 minutes at 37° C.): 30 nM
SMILES: O=C(O)CC(NC(=O)Nc1c(O)ccn(Cc2ccccc2Cl)c1=O)c1cccc(Cl)c1 (stereo not drawn)

IC50 (Table 6, 30 minutes at 37° C.): 5 nM
SMILES: O=C(O)C[C@H](NC(=O)Nc1c(O)ccn(Cc2ccccc2Cl)c1=O)c1cccc(OC2CCCC2)c1

IC50 (Table 3, 30 minutes at 37° C.): 10 nM
SMILES: Cc1ccc([C@H](CC(=O)O)NC(=O)Nc2c(C)ccn(Cc3ccccc3Cl)c2=O)cc1C [(3S)-3-{[({1-[(2-chlorophenyl)methyl]-4-methyl-2-oxo-1,2-dihydro-3-pyridinyl}amino)carbonyl]amino}-3-(3,4-dimethylphenyl)propanoic acid]

IC50 [1]: 17 nM
SMILES: Cc1ccc([C@H](CC(=O)O)NC(=O)Nc2c(O)ccn(Cc3cccc(C(F)(F)F)c3)c2=O)cc1

IC50 [1]: 12 nM
SMILES: COc1ccc(Cl)c(Cn2ccc(O)c(NC(=O)N[C@@H](CC(=O)O)c3ccc(C)cc3)c2=O)c1

IC50 (Table 3, 30 minutes at 37° C.): 20 nM
SMILES: O=C(O)C[C@H](NC(=O)Nc1c(O)ccn(Cc2ccccc2Cl)c1=O)c1ccc2c(c1)OCO2

IC50 (Table 3, 30 minutes at 37° C.): 3 nM
SMILES: COc1ccc([C@H](CC(=O)O)NC(=O)Nc2c(C)ccn(Cc3ccccc3Cl)c2=O)cc1 [(3S)-3-{[({1-[(2-chlorophenyl)methyl]-4-methyl-2-oxo-1,2-dihydro-3-pyridinyl}amino)carbonyl]amino}-3-[4-(methyloxy)phenyl]propanoic acid]

IC50 (Table 4, 30 minutes at 37° C.): 300 nM
SMILES: O=C(O)C[C@H](NC(=O)Nc1cccn(Cc2ccccc2Cl)c1=O)c1ccc2c(c1)CCC2

IC50 (Table 3, 30 minutes at 37° C.): 20 nM
SMILES: O=C(O)C[C@H](NC(=O)Nc1c(O)ccn(Cc2ccccc2Cl)c1=O)c1cccc(C(F)(F)F)c1 [(3S)-3-{[({1-[(2-chlorophenyl)methyl]-4-hydroxy-2-oxo-1,2-dihydro-3-pyridinyl}amino)carbonyl]amino}-3-[3-(trifluoromethyl)phenyl]propanoic acid]

IC50 [1]: 35 nM
SMILES: Cc1ccc([C@H](CC(=O)O)NC(=O)Nc2c(O)ccn(Cc3ccccc3S(C)(=O)=O)c2=O)cc1
